How the values were obtained:
[1] = target: T1, NLRP3 (Homo sapiens, UniProt Q96P20); assay: THP-1 cells pyroptosis assay; format: cell-based; set-up: Seed THP-1 cells (25,000 cells/well) containing 1.0 μg/ml LPS; host or cells: THP-1 cells, LPS-primed, nigericin-stimulated; conditions: 1.0 μg/ml LPS, compound 3 hrs, nigericin 5 μM 1 hr, resazurin readout
Method: THP-1 cells (ATCC #TIB-202) were grown in RPMI containing L-glutamine (Gibco #11835) supplemented with 1 mM sodium pyruvate (Sigma #S8636) and penicillin (100 units/ml)/streptomycin (0.1 mg/ml) (Sigma #P4333) in 10% Fetal Bovine Serum (FBS) (Sigma #F0804). The cells were routinely passaged and grown to confluency (˜10^6 cells/ml). On the day of the experiment, THP-1 cells were harvested and resuspended into RPMI medium (without FBS). The cells were then counted and viability (>90%) checked by Trypan blue (Sigma #T8154). Appropriate dilutions were made to give a concentration of 625,000 cells/ml. To this diluted cell solution was added LPS (Sigma #L4524) to give a […] Final Assay Concentration (FAC). 40 μl of the final preparation was aliquoted into each well of a 96-well plate. The plate thus prepared was used for compound screening.
The following method step-by-step assay was followed for compound screening. • 1. Seed THP-1 cells (25,000 cells/well) containing 1.0 μg/ml LPS in 40 μl of RPMI medium (without FBS) in 96-well, black walled, clear bottom cell culture plates coated with poly-D-lysine (VWR #734-0317) • 2. Add 5 μl compound (8 points half-log dilution, with 10 μM top dose) or vehicle (DMSO 0.1% FAC) to the appropriate wells • 3. Incubate for 3 hrs at 37° C., 5% CO2 • 4. Add 5 μl nigericin (Sigma #N7143) (FAC 5 μM) to all wells • 5. Incubate for 1 hr at 37° C., 5% CO2 • 6. At the end of the incubation period, spin plates at 300×g for 3 mins and remove supernatant • 7. Then add 50 μl of resazurin (Sigma #R7017) (FAC 100 μM resazurin in RPMI medium without FBS) and incubate plates for a further 1-2 hrs at 37° C. and 5% CO2 • 8. Plates were read in an Envision reader at Ex 560 nm and Em 590 nm • 9. IC50 data is fitted to a non-linear regression equation (log inhibitor vs response-variable slope 4-parameters) 96-well Plate Map

[2] = target: T1, NLRP3; assay: Human whole blood IL-1β release assay; format: cell-based; set-up: Human whole blood in Li-heparin tubes was obtained from healthy donors; from tissue; host or cells: human whole blood from healthy volunteer donors, LPS-primed, nigericin-stimulated; conditions: 1 μg/ml LPS, compound 3 hrs, nigericin 10 μM 1 hr, IL-1β in supernatant (AlphaLisa), read-out: HWB IC50
Method: For systemic delivery, the ability to inhibit NLRP3 when the compounds are present within the bloodstream is of great importance. For this reason, the NLRP3 inhibitory activity of a number of compounds in human whole blood was investigated in accordance with the following protocol.
Human whole blood in Li-heparin tubes was obtained from healthy donors from a volunteer donor panel. • 1. Plate out 80 μl of whole blood containing 1 μg/ml of LPS in 96-well, clear bottom cell culture plate (Corning #3585) • 2. Add 10 μl compound (8 points half-log dilution with 10 μM top dose) or vehicle (DMSO 0.1% FAC) to the appropriate wells • 3. Incubate for 3 hrs at 37° C., 5% CO2 • 4. Add 10 μl nigericin (Sigma #N7143) (10 μM FAC) to all wells • 5. Incubate for 1 hr at 37° C., 5% CO2 • 6. At the end of the incubation period, spin plates at 300×g for 5 mins to pellet cells and remove 20 μl of supernatant and add to 96-well v-bottom plates for IL-1β analysis (note: these plates containing the supernatants can be stored at −80° C. to be analysed at a later date) • 7. IL-1β was measured according to the manufacturer protocol (Perkin Elmer-AlphaLisa IL-1 Kit AL220F-5000) • 8. IC50 data is fitted to a non-linear regression equation (log inhibitor vs response-variable slope 4-parameters)

T1 sequence (Q96P20 whole entry): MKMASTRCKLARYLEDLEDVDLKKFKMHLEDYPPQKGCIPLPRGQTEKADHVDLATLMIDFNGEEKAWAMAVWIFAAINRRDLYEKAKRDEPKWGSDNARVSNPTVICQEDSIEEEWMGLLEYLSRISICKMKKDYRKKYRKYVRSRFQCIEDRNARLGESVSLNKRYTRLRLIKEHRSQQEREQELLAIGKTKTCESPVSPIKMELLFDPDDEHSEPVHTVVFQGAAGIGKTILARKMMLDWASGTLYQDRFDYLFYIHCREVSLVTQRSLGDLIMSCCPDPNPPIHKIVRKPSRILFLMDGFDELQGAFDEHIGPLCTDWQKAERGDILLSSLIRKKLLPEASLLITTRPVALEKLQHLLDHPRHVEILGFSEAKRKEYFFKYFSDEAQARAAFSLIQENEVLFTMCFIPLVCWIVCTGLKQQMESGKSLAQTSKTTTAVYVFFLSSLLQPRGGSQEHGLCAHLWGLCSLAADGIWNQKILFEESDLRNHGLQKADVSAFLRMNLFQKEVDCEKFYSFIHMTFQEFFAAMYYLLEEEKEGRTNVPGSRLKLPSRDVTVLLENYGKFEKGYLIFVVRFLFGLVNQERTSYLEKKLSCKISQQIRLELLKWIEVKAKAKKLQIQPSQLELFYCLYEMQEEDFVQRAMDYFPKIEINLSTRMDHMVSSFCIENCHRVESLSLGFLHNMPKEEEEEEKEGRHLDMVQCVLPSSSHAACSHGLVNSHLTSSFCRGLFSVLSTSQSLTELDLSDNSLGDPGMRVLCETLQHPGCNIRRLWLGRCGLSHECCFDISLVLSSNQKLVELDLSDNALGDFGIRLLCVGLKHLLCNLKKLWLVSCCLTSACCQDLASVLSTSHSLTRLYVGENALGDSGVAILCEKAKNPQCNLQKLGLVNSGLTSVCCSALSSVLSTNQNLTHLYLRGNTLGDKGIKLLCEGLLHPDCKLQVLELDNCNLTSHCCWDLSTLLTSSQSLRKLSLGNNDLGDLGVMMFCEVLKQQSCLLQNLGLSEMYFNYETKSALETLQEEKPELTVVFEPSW

| SMILES | IC50 [1] [nM] | IC50 [2] [nM] |
| --- | --- | --- |
| O=S1(=O)c2nnc([nH]2)Nc2c(ccc3c2CCC3)-c2ccnc(c2)OCCCN2C[C@@H]3C[C@H]2CN31 [Example 22, (19S,21S)-27-oxa-16λ^6-thia-11,13,14,17,23,29,33-heptaazaheptacyclo-[26.3.1.1^12,15.0^2,10.0^5,9.0^17,21.0^19,23]tritriaconta-1(31),2,4,9,12,14,28(32),29-octaene-16,16-dioxide] | ≤ 5000 |  |
| CN1CCCCOc2cc(ccn2)-c2ccc3c(c2Nc2nnc([nH]2)S(=O)(=O)N2CCC1CC2)CCC3 [Example 13, 27-methyl-22-oxa-2λ^6-thia-1,4,5,7,20,27,34-heptaazahexacyclo-[26.2.2.1^3,6.1^17,21.0^8,16.0^9,13]tetratriaconta-3,5,8,13,15,17,19,21(33)-octaene-2,2-dioxide] | ≤ 1000 |  |
| O=S1(=O)c2nnc([nH]2)Nc2c(ccc3c2CCC3)-c2ccnc(c2)OCCCN2CCC23CCN1CC3 [Example 15, 8-oxa-28λ^6-thia-4,10,23,25,26,29,34-heptaazaheptacyclo-[27.2.2.1^9,13.1^24,27.0^1,4.0^14,22.0^17,21]pentatriaconta-9(35),10,12,14,16,21,24,26-octaene-28,28-dioxide] | ≤ 100 |  |
| O=S1(=O)c2nnc([nH]2)Nc2c(ccc3c2CCC3)-c2ccnc(c2)OCC2CN(C2)C2CCN1CC2 [Example 18, 6-oxa-26λ^6-thia-2,8,21,23,24,27,32-heptaazaheptacyclo-[25.2.2.1^2,4.1^7,11.1^22,25.0^12,20.1^15,19]tetratriaconta-7(33),8,10,12,14,19,22,24-octaene-26,26-dioxide] | ≤ 5000 |  |
| CN1CCCOc2cc(ccn2)-c2ccc3c(c2Nc2nnc([nH]2)S(=O)(=O)N2CCC1CC2)CCC3 [Example 1, 26-methyl-22-oxa-2λ^6-thia-1,4,5,7,20,26,33-heptazahexacyclo-[25.2.2.1^3,6.1^17,21.0^8,16.0^9,13]tritriaconta-3,6(33),8,13,15,17,19,21(32)-octaene 2,2-dioxide] | ≤ 5000 | ≤ 5000 |
| CC1(C)COc2cc(ccn2)-c2ccc3c(c2Nc2nnc([nH]2)S(=O)(=O)c2cccc1c2)CCC3 [Example 8, 22,22-dimethyl-24-oxa-16 λ^6-thia-11,13,14,26,31-pentazahexacyclo-[23.3.1.1^12,15.1^17,21.0^2,10.0^5,9] hentriaconta-1(28),2,4,9,12,14,17,19,21(30),25(29),26-undecaene 16,16-dioxide] | ≤ 5000 | ≤ 10000 |
| CC1(C)CCOc2cc(ccn2)-c2ccc3c(c2Nc2nnc([nH]2)S(=O)(=O)c2ccn1n2)CCC3 [Example 7, 21,21-dimethyl-24-oxa-16λ^6-thia-11,13,14,20,26,30,31-heptazahexacyclo-[23.3.1.1^12,15.1^17,20.0^2,10.0^5,9]hentriaconta-1(28),2,4,9,12,14,17(30),18,25(29),26-decaene 16,16-dioxide] | ≤ 10000 |  |
| CN(C)CC12CCCCOc3cc(ccn3)-c3ccc4c(c3Nc3nnc([nH]3)S(=O)(=O)N(CC1)C2)CCC4 (stereo not shown) [Example 21, 20-[(dimethylamino)methyl]-25-oxa-16λ^6-thia-11,13,14,17,27,32-hexaazahexacyclo[24.3.1.1^12,15.1^17,20.0^2,10.0^5,9]dotriaconta-1(29),2,4,9,12,14,26(30),27-octaene-16,16-dioxide] | ≤ 1000 |  |
| CN1CCOc2cc(ccn2)-c2ccc3c(c2Nc2nnc([nH]2)S(=O)(=O)N2CCC1CC2)CCC3 [Example 9, 25-methyl-22-oxa-2λ^6-thia-1,4,5,7,20,25,32-heptaazahexacyclo-[24.2.2.1^3,6.1^17,21.0^8,16.0^9,13]dotriaconta-3,5,8,13,15,17,19,21(31)-octaene-2,2-dioxide] | ≤ 500 | ≤ 500 |
| CN1CCCOc2cc(ccn2)-c2ccc3c(c2Nc2nnc([nH]2)S(=O)(=O)N2CC[C@H]1C2)CCC3 [Example 17, (20S)-21-methyl-25-oxa-16λ^6-thia-11,13,14,17,21,27,32-heptaazahexacyclo[24.3.1.1^12,15.1^17,20.0^2,10.0^0,9]dotriaconta-1(29),2,4,9,12,14,26(30),27-octaene-16,16-dioxide] | ≤ 500 |  |
| O=S1(=O)c2nnc([nH]2)Oc2c(ccc3c2CCC3)-c2ccnc(c2)OCCCN2CCC3(C2)CN1C3 [Example 23, 11,26-dioxa-16λ^6-thia-13,14,17,22,28,34-hexaazaheptacyclo-[25.3.1.1^12,15.1^17,19.1^19,22.0^2,10.0^5,9]tetratriaconta-1(30),2,4,9,12,14,27(31),28-octaene-16,16-dioxide] | ≤ 5000 |  |
| O=S1(=O)c2nnc([nH]2)Nc2c(ccc3c2CCC3)-c2ccnc(c2)OCCCN2CCC3(C2)CN1C3 [Example 2, 26-oxa-16λ^6-thia-11,13,14,17,22,28,34-heptazaheptacyclo-[25.3.1.1^12,15.1^17,19.1^19,22.0^2,10.0^5,9]tetratriaconta-1(30),2,4,9,12,14,27(31),28-octaene 16,16-dioxide] | ≤ 100 | ≤ 100 |
| CC1(C)COc2cc(ccn2)-c2ccc3c(c2Nc2nnc([nH]2)S(=O)(=O)c2ccn1n2)CCC3 [Example 6, 21,21-dimethyl-23-oxa-16λ^6-thia-11,13,14,20,25,29,30-heptazahexacyclo-[22.3.1.1^12,15.1^17,20.0^2,10.0^5,9]triaconta-1(27),2,4,9,12(30),14,17(29),18,24(28),25-decaene 16,16-dioxide] | ≤ 5000 |  |
| CN(C)CC12CCCCOc3cc(ccn3)-c3ccc4c(c3Nc3nnc([nH]3)S(=O)(=O)N(C1)C2)CCC4 [Example 16, 19-[(dimethylamino)methyl]-24-oxa-16λ^6-thia-11,13,14,17,26,31-hexaazahexacyclo[23.3.1.1^12,15.1^17,19.0^2,10.0^5,9]hentriaconta-1(28),2,4,9,12,14,25(29),26-octaene-16,16-dioxide] | ≤ 1000 |  |
| CN1CCOc2cc(ccn2)-c2ccc3c(c2Nc2nnc([nH]2)S(=O)(=O)N2CC[C@H](C1)C2)CCC3 [Example 14, (20R)-22-methyl-25-oxa-16λ^6-thia-11,13,14,17,22,27,32-heptaazahexacyclo[24.3.1.1^12,15.1^17,20.0^2,10.0^5,9]dotriaconta-1(29),2,4,9,12,14,26(30),27-octaene-16,16-dioxide] | ≤ 500 |  |
| O=S1(=O)c2nnc([nH]2)Nc2c(ccc3c2CCC3)-c2ccnc(c2)OCCCCN2CCC3(C2)CN1C3 [Example 19, 27-oxa-16λ^6-thia-11,13,14,17,22,29,35-heptaazaheptacyclo-[26.3.1.1^12,15.1^17,19.1^19,22.0^2,10.0^5,9]pentatriaconta-1(31),2,4,9,12,14,28(32),29-octaene-16,16-dioxide] | ≤ 500 |  |
| CC(C)c1cc(F)cc2c1Nc1nnc([nH]1)S(=O)(=O)N1CC3(CCN(CCCOc4cc-2ccn4)C3)C1 [Example 24, 4-fluoro-6-(propan-2-yl)-23-oxa-13λ^6-thia-8,10,11,14,19,25,31-heptaazahexacyclo[22.3.1.1^9,12.1^14,16.1^16,19.0^2,7]hentriaconta-1(27),2(7),3,5,9,11,24(28),25-octaene-13,13-dioxide] | ≤ 100 |  |
| O=S1(=O)c2nnc([nH]2)Nc2c(ccc3c2CCC3)-c2ccnc(c2)OCCCN2CCOCC23CCN1CC3 [Example 20] | ≤ 500 |  |
